Measurements from PMC5218480 (PLoS ONE, 2017).

Tested on: MV-4-11 cells
Assay: Gene expression microarray analysis (Affymetrix PrimeView) and GSEA
Assay type: cell-based, human
Parameters: RFU PODN (11730768_x_at) / Fold change /veh PODN (11730768_x_at) / RFU LINC00158 (11744669_a_at) / Fold change /veh LINC00158 (11744669_a_at) / RFU DUSP10 (11751237_a_at) / Fold change /veh DUSP10 (11751237_a_at) / RFU ID3 (11757404_x_at) / Fold change /veh ID3 (11757404_x_at) / RFU PLEKHG5 (11737974_s_at) / Fold change /veh PLEKHG5 (11737974_s_at) / RFU LRRC4B (11730491_at) / Fold change /veh LRRC4B (11730491_at) / RFU GIMAP4 (11747438_a_at) / Fold change /veh GIMAP4 (11747438_a_at) / RFU KRT8 (11758183_x_at) / Fold change /veh KRT8 (11758183_x_at) / RFU CNN1 (11734310_a_at) / Fold change /veh CNN1 (11734310_a_at) / RFU VPS37D (11726825_at) / Fold change /veh VPS37D (11726825_at) / RFU C10orf10 (11716522_x_at) / Fold change /veh C10orf10 (11716522_x_at) / RFU KIR2DL2 /// KIR2DL4 /// KIR2DL5A /// KIR2DL5B /// KIR2DS1 /// KIR2DS2 /// KIR2DS3 /// KIR2DS4 /// KIR3DL3 /// KIR3DL3 /// KIR3DS1 (11738374_at) / Fold change /veh KIR2DL2 /// KIR2DL4 /// KIR2DL5A /// KIR2DL5B /// KIR2DS1 /// KIR2DS2 /// KIR2DS3 /// KIR2DS4 /// KIR3DL3 /// KIR3DL3 /// KIR3DS1 (11738374_at) / RFU C1QL1 (11718748_at) / Fold change /veh C1QL1 (11718748_at) / RFU TMPRSS4 (11747572_a_at) / Fold change /veh TMPRSS4 (11747572_a_at) / RFU HAMP (11756126_x_at) / Fold change /veh HAMP (11756126_x_at) / RFU RNFT2 (11725882_a_at) / Fold change /veh RNFT2 (11725882_a_at) / RFU NR4A2 (11747474_a_at) / Fold change /veh NR4A2 (11747474_a_at) / RFU ABCC12 (11746883_a_at) / Fold change /veh ABCC12 (11746883_a_at) / RFU TMEM136 (11760407_x_at) / Fold change /veh TMEM136 (11760407_x_at) / RFU CLDN22 /// WWC2 (11732394_at) / Fold change /veh CLDN22 /// WWC2 (11732394_at) / RFU HLA-DPB1 (11760878_x_at) / Fold change /veh HLA-DPB1 (11760878_x_at) / RFU SPINT1 (11716480_a_at) / Fold change /veh SPINT1 (11716480_a_at) / RFU GAP43 (11754022_s_at) / Fold change /veh GAP43 (11754022_s_at) / RFU A4GNT (11735810_at) / Fold change /veh A4GNT (11735810_at) / RFU PRB3 (11715151_x_at) / Fold change /veh PRB3 (11715151_x_at) / RFU TUBB4B (11761932_at) / Fold change /veh TUBB4B (11761932_at) / RFU CAPN14 (11732068_a_at) / Fold change /veh CAPN14 (11732068_a_at) / RFU TMCC2 (11721928_a_at) / Fold change /veh TMCC2 (11721928_a_at) / RFU IRGQ (11745062_a_at) / Fold change /veh IRGQ (11745062_a_at) / RFU FAM174B (11720279_a_at) / Fold change /veh FAM174B (11720279_a_at) / RFU TMPRSS4 (11748680_a_at) / Fold change /veh TMPRSS4 (11748680_a_at) / RFU FAM212B (11763350_a_at) / Fold change /veh FAM212B (11763350_a_at) / RFU PLEKHG5 (11743358_a_at) / Fold change /veh PLEKHG5 (11743358_a_at) / RFU ZSCAN30 (11745921_a_at) / Fold change /veh ZSCAN30 (11745921_a_at) / RFU CMKLR1 (11741424_a_at) / Fold change /veh CMKLR1 (11741424_a_at) / RFU LOC101060620 /// MAPK8IP1 (11723275_at) / Fold change /veh LOC101060620 /// MAPK8IP1 (11723275_at) / RFU SPTSSB (11747773_x_at) / Fold change /veh SPTSSB (11747773_x_at) / RFU PRSS12 (11739890_at) / Fold change /veh PRSS12 (11739890_at) / RFU BIN1 (11741810_x_at) / Fold change /veh BIN1 (11741810_x_at) / RFU WNT11 (11732464_a_at) / Fold change /veh WNT11 (11732464_a_at) / RFU C10orf10 (11716521_a_at) / Fold change /veh C10orf10 (11716521_a_at) / RFU C5orf56 (11738089_at) / Fold change /veh C5orf56 (11738089_at) / RFU CYB561 (11721691_x_at) / Fold change /veh CYB561 (11721691_x_at) / RFU ANKRD19P (11752326_a_at) / Fold change /veh ANKRD19P (11752326_a_at) / RFU OR2T12 /// OR2T33 /// OR2T8 (11738714_s_at) / Fold change /veh OR2T12 /// OR2T33 /// OR2T8 (11738714_s_at) / RFU VCAN (11748164_a_at) / Fold change /veh VCAN (11748164_a_at) / RFU JSRP1 (11732532_at) / Fold change /veh JSRP1 (11732532_at) / RFU KRTAP10-11 (11738290_x_at) / Fold change /veh KRTAP10-11 (11738290_x_at) / RFU MYO3A (11730013_a_at) / Fold change /veh MYO3A (11730013_a_at) / RFU EBF3 (11725865_a_at) / Fold change /veh EBF3 (11725865_a_at) / RFU CAMK2N1 (11719241_x_at) / Fold change /veh CAMK2N1 (11719241_x_at) / RFU C5orf56 (11738088_a_at) / Fold change /veh C5orf56 (11738088_a_at) / RFU OLFML3 (11715873_a_at) / Fold change /veh OLFML3 (11715873_a_at) / RFU LOC100653217 /// NTM (11731650_a_at) / Fold change /veh LOC100653217 /// NTM (11731650_a_at) / RFU MAPK11 (11762145_a_at) / Fold change /veh MAPK11 (11762145_a_at) / RFU FIZ1 (11724087_x_at) / Fold change /veh FIZ1 (11724087_x_at) / RFU OASL (11726364_x_at) / Fold change /veh OASL (11726364_x_at) / RFU SOX15 (11748057_x_at) / Fold change /veh SOX15 (11748057_x_at) / RFU CD79A (11719716_a_at) / Fold change /veh CD79A (11719716_a_at) / RFU HIST1H1D (11736915_at) / Fold change /veh HIST1H1D (11736915_at) / RFU CASKIN2 (11723855_a_at) / Fold change /veh CASKIN2 (11723855_a_at) / RFU LOC730098 (11760151_x_at) / Fold change /veh LOC730098 (11760151_x_at) / RFU OR4N2 (11742367_at) / Fold change /veh OR4N2 (11742367_at) / RFU PRRT2 (11749266_a_at) / Fold change /veh PRRT2 (11749266_a_at) / RFU SNX32 (11753110_a_at) / Fold change /veh SNX32 (11753110_a_at) / RFU CDHR5 (11726645_a_at) / Fold change /veh CDHR5 (11726645_a_at) / RFU RCAN1 (11760418_a_at) / Fold change /veh RCAN1 (11760418_a_at) / RFU FAM167A (11723789_a_at) / Fold change /veh FAM167A (11723789_a_at) / RFU FAM26E (11764081_at) / Fold change /veh FAM26E (11764081_at) / RFU ISYNA1 (11749810_s_at) / Fold change /veh ISYNA1 (11749810_s_at) / RFU ACY1 (11761880_at) / Fold change /veh ACY1 (11761880_at) / RFU 11764098_at / Fold change /veh 11764098_at / RFU SAMD14 (11745864_x_at) / Fold change /veh SAMD14 (11745864_x_at) / RFU NPB (11741838_a_at) / Fold change /veh NPB (11741838_a_at) / RFU TMPRSS6 (11731388_a_at) / Fold change /veh TMPRSS6 (11731388_a_at) / RFU KRTAP10-2 (11738614_at) / Fold change /veh KRTAP10-2 (11738614_at) / RFU ARHGAP8 /// PRR5-ARHGAP8 (11727945_x_at) / Fold change /veh ARHGAP8 /// PRR5-ARHGAP8 (11727945_x_at) / RFU KRTAP5-7 /// NADSYN1 (11734609_at) / Fold change /veh KRTAP5-7 /// NADSYN1 (11734609_at) / RFU RASL12 (11751679_a_at) / Fold change /veh RASL12 (11751679_a_at) / RFU CDKN2B (11736163_a_at) / Fold change /veh CDKN2B (11736163_a_at) / RFU PRF1 (11729649_at) / Fold change /veh PRF1 (11729649_at) / RFU, ZNF638 /// ZNF638-IT1 / Fold change vs veh, ZNF638 /// ZNF638-IT1 / RFU, PANK3 / Fold change vs veh, PANK3 / RFU, SH3YL1 / Fold change vs veh, SH3YL1 / RFU, ZEB2 / Fold change vs veh, ZEB2 / RFU, NRIP1 / Fold change vs veh, NRIP1 / RFU, PTTG1IP / Fold change vs veh, PTTG1IP / RFU, CAPN2 / Fold change vs veh, CAPN2 / RFU, MED14 / Fold change vs veh, MED14 / RFU, SNORA58 / Fold change vs veh, SNORA58 / RFU, C1orf63 / Fold change vs veh, C1orf63 / RFU, LRRFIP1 / Fold change vs veh, LRRFIP1 / RFU, NDUFAF7 / Fold change vs veh, NDUFAF7 / RFU, SLC12A2 / Fold change vs veh, SLC12A2 / RFU, IBTK / Fold change vs veh, IBTK / RFU, ESF1 / Fold change vs veh, ESF1 / Fold change vs veh, TMEM50B / RFU, TAOK1 / Fold change vs veh, TAOK1 / RFU, ACBD3 / Fold change vs veh, ACBD3 / RFU, TMA16 / Fold change vs veh, TMA16 / RFU, RWDD3 / Fold change vs veh, RWDD3 / RFU, BCAT1 / Fold change vs veh, BCAT1 / RFU, EDEM3 / Fold change vs veh, EDEM3 / RFU, TMEM33 / Fold change vs veh, TMEM33 / RFU, WDR75 / Fold change vs veh, WDR75 / RFU, AHCTF1 / Fold change vs veh, AHCTF1 / RFU, TFRC / Fold change vs veh, TFRC / RFU, ZDHHC17 / Fold change vs veh, ZDHHC17 / RFU, NOM1 / Fold change vs veh, NOM1 / RFU, ARL8B / Fold change vs veh, ARL8B / RFU, ZBTB11 / Fold change vs veh, ZBTB11 / RFU, TAMM41 / Fold change vs veh, TAMM41 / RFU, KIAA1704 /// LOC100996395 / Fold change vs veh, KIAA1704 /// LOC100996395 / RFU, ING1 / Fold change vs veh, ING1 / RFU, TRMT61B / Fold change vs veh, TRMT61B / RFU, FUBP3 / Fold change vs veh, FUBP3 / RFU, TP53 / Fold change vs veh, TP53 / RFU, TNKS2 / Fold change vs veh, TNKS2 / RFU, ZFP14 / Fold change vs veh, ZFP14 / RFU, ACTR2 / Fold change vs veh, ACTR2 / RFU, PPP3R1 / Fold change vs veh, PPP3R1 / RFU, PIK3R1 / Fold change vs veh, PIK3R1 / RFU, HNRNPA1 / Fold change vs veh, HNRNPA1 / RFU, RNF170 / Fold change vs veh, RNF170 / RFU, ZNF28 / Fold change vs veh, ZNF28 / RFU, RNGTT / Fold change vs veh, RNGTT / RFU, OGT / Fold change vs veh, OGT / RFU, BRD1 / Fold change vs veh, BRD1 / RFU, MARS / Fold change vs veh, MARS / RFU, ZNF655 / Fold change vs veh, ZNF655 / RFU, FAHD1 / Fold change vs veh, FAHD1 / RFU, BDP1 / Fold change vs veh, BDP1 / RFU, LRRCC1 / Fold change vs veh, LRRCC1 / RFU, ARID1A / Fold change vs veh, ARID1A / RFU, ZNF146 / Fold change vs veh, ZNF146 / RFU, ZNF330 / Fold change vs veh, ZNF330 / RFU, GPN3 / Fold change vs veh, GPN3 / RFU, C9orf123 / Fold change vs veh, C9orf123 / RFU, N4BP2L2 / Fold change vs veh, N4BP2L2 / RFU, ARFIP1 / Fold change vs veh, ARFIP1 / RFU, FAM179B / Fold change vs veh, FAM179B / RFU, BCL10 / Fold change vs veh, BCL10 / RFU, UHRF1BP1L / Fold change vs veh, UHRF1BP1L / RFU, BET1 / Fold change vs veh, BET1 / RFU, CNOT2 / Fold change vs veh, CNOT2 / RFU, ZNF268 / Fold change vs veh, ZNF268 / Fold change vs veh, ZNF507 / RFU, DGCR2 / Fold change vs veh, DGCR2 / RFU, WDSUB1 / Fold change vs veh, WDSUB1 / Fold change vs veh, HSP90B1 /// MIR3652 / RFU, ADSS / Fold change vs veh, ADSS / RFU, GK / Fold change vs veh, GK / RFU, ZNF148 / Fold change vs veh, ZNF148 / RFU, TAF9 / Fold change vs veh, TAF9 / RFU, SLC1A5 / Fold change vs veh, SLC1A5 / RFU, SLMO2 / Fold change vs veh, SLMO2 / RFU, ABCC4 / Fold change vs veh, ABCC4 / RFU, LOC101060439 /// RAP1B / Fold change vs veh, LOC101060439 /// RAP1B / RFU, RFX7 / Fold change vs veh, RFX7 / RFU, GTPBP10 / Fold change vs veh, GTPBP10 / RFU, CNEP1R1 / Fold change vs veh, CNEP1R1 / RFU, BIVM-ERCC5 /// ERCC5 / Fold change vs veh, BIVM-ERCC5 /// ERCC5 / RFU, ILF3 / Fold change vs veh, ILF3 / RFU 11762660_at / Fold change /veh 11762660_at / RFU VCAN (11757783_s_at) / Fold change /veh VCAN (11757783_s_at) / RFU DDX43 (11728927_at) / Fold change /veh DDX43 (11728927_at) / RFU KRT8 (11758188_x_at) / Fold change /veh KRT8 (11758188_x_at) / RFU NKD1 (11759106_at) / Fold change /veh NKD1 (11759106_at) / RFU SRD5A1 (11742802_a_at) / Fold change /veh SRD5A1 (11742802_a_at) / RFU TPSAB1 /// TPSB2 (11721975_s_at) / Fold change /veh TPSAB1 /// TPSB2 (11721975_s_at) / RFU GSTM3 (11746129_a_at) / Fold change /veh GSTM3 (11746129_a_at) / RFU IL23R (11737362_x_at) / Fold change /veh IL23R (11737362_x_at) / RFU TMEM51 (11727254_a_at) / Fold change /veh TMEM51 (11727254_a_at) / RFU PIWIL2 (11732686_x_at) / Fold change /veh PIWIL2 (11732686_x_at) / RFU ORM1 (11744905_x_at) / Fold change /veh ORM1 (11744905_x_at) / RFU CCDC152 (11743942_at) / Fold change /veh CCDC152 (11743942_at) / RFU ECM1 (11717891_a_at) / Fold change /veh ECM1 (11717891_a_at) / RFU IL23R (11748794_a_at) / Fold change /veh IL23R (11748794_a_at) / RFU TNFAIP8L3 (11732012_x_at) / Fold change /veh TNFAIP8L3 (11732012_x_at) / RFU MBOAT4 (11741988_at) / Fold change /veh MBOAT4 (11741988_at) / RFU 11764193_at / Fold change /veh 11764193_at / RFU TMEM53 (11763286_at) / Fold change /veh TMEM53 (11763286_at) / RFU MAGEB2 (11727129_at) / Fold change /veh MAGEB2 (11727129_at) / RFU TMEM200A (11744735_a_at) / Fold change /veh TMEM200A (11744735_a_at) / RFU CCDC152 (11751479_a_at) / Fold change /veh CCDC152 (11751479_a_at) / RFU FAM211A (11726209_a_at) / Fold change /veh FAM211A (11726209_a_at) / RFU RGS16 (11746705_a_at) / Fold change /veh RGS16 (11746705_a_at) / RFU VCAN (11755009_s_at) / Fold change /veh VCAN (11755009_s_at) / RFU RHOB (11743442_s_at) / Fold change /veh RHOB (11743442_s_at) / RFU RGS16 (11720943_a_at) / Fold change /veh RGS16 (11720943_a_at) / RFU RGS16 (11720944_at) / Fold change /veh RGS16 (11720944_at) / RFU, VPS4B / Fold change vs veh, VPS4B / RFU, CREB1 / Fold change vs veh, CREB1 / RFU, DNAJC13 / Fold change vs veh, DNAJC13 / RFU, GNAQ / Fold change vs veh, GNAQ / RFU, CDK5R1 / Fold change vs veh, CDK5R1 / RFU, ZRANB3 / Fold change vs veh, ZRANB3 / RFU, CUL4A / Fold change vs veh, CUL4A / RFU, CCNY / Fold change vs veh, CCNY / RFU, UFL1 / Fold change vs veh, UFL1 / RFU, COG3 / Fold change vs veh, COG3 / RFU, DIAPH2 / Fold change vs veh, DIAPH2 / RFU, SKA2 / Fold change vs veh, SKA2 / RFU, AFF3 / Fold change vs veh, AFF3 / RFU, LMF1 / Fold change vs veh, LMF1 / RFU, IPO11 / Fold change vs veh, IPO11 / RFU, DFFB / Fold change vs veh, DFFB / RFU, FOXP1 / Fold change vs veh, FOXP1 / RFU, CARD8 / Fold change vs veh, CARD8 / RFU, STRN3 / Fold change vs veh, STRN3 / RFU, ADK / Fold change vs veh, ADK / RFU, RASSF2 / Fold change vs veh, RASSF2 / RFU, WIPF1 / Fold change vs veh, WIPF1 / RFU, LARP1B / Fold change vs veh, LARP1B / RFU, RASA1 / Fold change vs veh, RASA1 / RFU, RB1 / Fold change vs veh, RB1 / RFU, PPFIA1 / Fold change vs veh, PPFIA1 / RFU, MAT2A / Fold change vs veh, MAT2A / RFU, CCT5 / Fold change vs veh, CCT5 / RFU, WDR92 / Fold change vs veh, WDR92 / RFU, CUX1 / Fold change vs veh, CUX1 / RFU, TTC7A / Fold change vs veh, TTC7A / RFU, TMEM135 / Fold change vs veh, TMEM135 / RFU, DEPTOR / Fold change vs veh, DEPTOR / RFU, CPM / Fold change vs veh, CPM / RFU, DNAJB6 / Fold change vs veh, DNAJB6 / RFU, CACNA2D3 / Fold change vs veh, CACNA2D3 / RFU, DTX4 / Fold change vs veh, DTX4 / RFU, TFCP2 / Fold change vs veh, TFCP2 / RFU, GMCL1 /// GMCL1P1 / Fold change vs veh, GMCL1 /// GMCL1P1 / RFU, AEBP2 / Fold change vs veh, AEBP2 / RFU, SNHG1 /// SNORD22 /// SNORD25 /// SNORD26 /// SNORD27 /// SNORD28 /// SNORD29 /// SNORD31 / Fold change vs veh, SNHG1 /// SNORD22 /// SNORD25 /// SNORD26 /// SNORD27 /// SNORD28 /// SNORD29 /// SNORD31 / Fold change (Aza/veh), C12orf56 (ProbeSet 11735607_a_at) / Fold change (ACY-1035/veh), C12orf56 (ProbeSet 11735607_a_at) / Fold change (Aza/veh), FGFR1OP (ProbeSet 11751329_s_at) / Fold change (ACY-1035/veh), FGFR1OP (ProbeSet 11751329_s_at) / Fold change (Aza/veh), VPS36 (ProbeSet 11739960_a_at) / Fold change (ACY-1035/veh), VPS36 (ProbeSet 11739960_a_at) / RFU SYPL1 (11715823_x_at) / Fold change /veh SYPL1 (11715823_x_at) / RFU IGFBP7 (11715501_s_at) / Fold change /veh IGFBP7 (11715501_s_at) / RFU REEP3 (11722064_at) / Fold change /veh REEP3 (11722064_at) / RFU IGLL1 (11728026_x_at) / Fold change /veh IGLL1 (11728026_x_at): dose or concentration left out as unconfirmed
Conditions: MV-4-11 cells, 48 hours

SMILES: Nc1ccc(-c2cccs2)cc1NC(=O)c1ccc2c(c1)cc(C1CC1)n2CCN1CCOCC1 [ACY-1035]
- RFU 11762660_at: 11.56 RFU
